Reference: ChEMBL document CHEMBL1129415, “Structure-activity relationship studies on benzofuran analogs of propafenone-type modulators of tumor cell multidrug resistance” (J Med Chem, 1996)
The source made the active and inactive calls. The calls are words filed in the database; no cut-off is given here.

Assays:
[1] = Partition coefficient (logP); format: physicochemical; conditions: octanol/water
CCRF-CEM [2] = assay: Effective dose against CCRF-CEM vcr 100 cells by using MTT assay; format: functional, Homo sapiens
CCRF-CEM [3] = tested on: CCRF-CEM
Description: Effective dose against CCRF-CEM vcr 100 cells by using rhodamine efflux studies.

CCRF-CEM [4] = assay: Compound was tested for effective dose against CCRF-CEM vcr 100 cells by using MTT assay; na=not active; format: functional, cell-based; conditions: Homo sapiens
CCRF-CEM [5] = conditions: Homo sapiens
Description: Compound was tested for effective dose against CCRF-CEM vcr 100 cells by using rhodamine efflux studies; na=not active

Row | logP [1] | SMILES | ED50 (CCRF-CEM [2]) | ED50 (CCRF-CEM [3]) | ED50 (CCRF-CEM [4]) | ED50 (CCRF-CEM [5])
1 | 4.25 | CC(C)N(CC(O)COc1ccccc1C(=O)CCc1ccccc1)C(C)C (stereo not drawn) | 0.29 µM | 0.61 uM l-1 |  | 
2 | 2.94 | CN(C)CC(O)COc1ccccc1C(=O)CCc1ccccc1 (stereo not drawn) | 0.82 µM | 7.12 uM l-1 |  | 
3 | 4.71 | CCCNCCc1oc2ccccc2c1CCc1ccccc1 | 0.87 µM | 2.9 uM l-1 |  | 
4 | 3.1 | CCCNCC(O)c1oc2ccccc2c1CC (stereo not drawn) | 4.19 µM | 69.6 uM l-1 |  | 
5 | 4.54 | CC(C)NCCc1oc2ccccc2c1CCc1ccccc1 | 1.1 µM | 5.8 uM l-1 |  | 
6 | 3.77 | CCCN(C)CC(O)COc1ccccc1C(=O)CCc1ccccc1 (stereo not drawn) | 0.27 µM | 1.36 uM l-1 |  | 
7 | 3.62 | CCN(CC)CC(O)COc1ccccc1C(=O)CCc1ccccc1 (stereo not drawn) | 0.39 µM | 1.4 uM l-1 |  | 
8 | 4.07 | CCCNCC(O)c1oc2ccccc2c1CCc1ccccc1 (stereo not drawn) | 1.8 µM | 13.61 uM l-1 |  | 
9 | 5.05 | COc1ccccc1N1CCN(CC(=O)c2oc3ccccc3c2CCc2ccccc2)CC1 | 2.02 µM | 4.96 uM l-1 |  | 
10 | 5.32 | COc1ccccc1N1CCN(CC(O)c2oc3ccccc3c2CCc2ccccc2)CC1 (stereo not drawn) | 0.21 µM | 0.46 uM l-1 |  | 
11 | 4.3 | O=C(CCc1ccccc1)c1ccccc1OCC(O)CNCc1ccccc1 (stereo not drawn) | 0.19 µM | 0.41 uM l-1 |  | 

The next lines start with the molecule.

Row | SMILES | logP [1] | ED50 (CCRF-CEM [2]) | ED50 (CCRF-CEM [3]) | ED50 (CCRF-CEM [4]) | ED50 (CCRF-CEM [5])
12 | O=C(CCc1ccccc1)c1ccccc1OCC(O)CN1CCOCC1 (stereo not drawn) | 2.54 | 1.49 µM | 13.56 uM l-1 |  | 
13 | COc1ccc(N2CCN(CC(O)COc3ccccc3C(=O)CCc3ccccc3)CC2)cc1 (stereo not drawn) | 4.65 | 0.11 µM | 0.28 uM l-1 |  | 
14 | CC(=O)c1ccccc1OCC(O)CN1CCN(c2ccc(F)cc2)CC1 (stereo not drawn) | 2.67 | 0.89 µM | 8.61 uM l-1 |  | 
15 | Cc1ccccc1N1CCN(CC(O)COc2ccccc2C(=O)CCc2ccccc2)CC1 (stereo not drawn) | 5.26 | 0.05 µM | 0.06 uM l-1 |  | 
16 | O=C(CCc1ccccc1)c1ccccc1OCC(O)CN1CCCCC1 (stereo not drawn) | 3.67 | 0.29 µM | 1.65 uM l-1 |  | 
17 | CCCNCC(O)COc1ccccc1C(=O)CCc1ccccc1 (stereo not drawn) [PROPAFENONE] |  |  | 3.55 uM l-1 |  | 
18 | CCC(=O)c1ccccc1OCC(O)CN1CCOCC1 (stereo not drawn) | 0.94 |  |  | inactive | inactive
19 | O=C(CCc1ccccc1)c1ccccc1OCC(O)CN1CCN(c2ccc(F)cc2)CC1 (stereo not drawn) | 4.93 | 0.15 µM | 0.16 uM l-1 |  | 
20 | O=C(CCc1ccccc1)c1ccccc1OCC(O)CN1CCCC1 (stereo not drawn) | 3.26 | 0.52 µM | 2.55 uM l-1 |  | 
